Source: patent US20230372382A1, “USE OF ADENOSINE DIPHOSPHATE RIBOSE FOR ADJUVANT THERAPY WITH RADIATION AND/OR ANTI-CANCER TREATMENT” (PearlsInMires Co., Ltd., priority 2021, published 2023)

How the values were obtained:
[1] = test system: AsPC-1 cells; assay: Change over time in intracellular ADP-ribose, radiation versus ADP-ribose treatment (ELISA); type: cell-based; settings: AsPC-1, 2 μM ADP-ribose, even after 24 hours; after radiation back to untreated level from 16 hours
Protocol: (§1) Brain cancer (U-87MG), kidney cancer (Caki-1), pancreatic cancer (AsPC-1), or breast cancer (MDA-MB-231) cells were cultured in a 6-well plate, respectively, and the cells were divided into the untreated group, the radiation-treated group, and the ADP-ribose-treated group. Irradiation was performed using an X-Rad 320 irradiator (Precision X-ray, North Branford, CT, USA), and cancer cells were treated with a total of 1, 2, and 5 Gy at a dose rate of 300 kVp and 150 cGy/min using an X-ray beam filter composed of 12.5 mA and 2.0 mm Al, respectively. Before treatment and at 4, 8, 16, and 24 hours after treatment, the medium was removed, the cells were washed with phosphate-buffered saline, and then RIPA buffer was added and the products were left on ice for 20 minutes. After scraping the cells, the cells were put in a centrifuge tube and centrifuged for 10 minutes at 10,000 g and 4° C. The supernatant was obtained, and 1% SDS was added, and then the reaction product was boiled at 100° C. for 5 minutes and cooled on ice. The supernatant was centrifuged again at 10,000 g and 4° C. for 10 minutes to obtain the final supernatant, and ADP-ribose was quantitatively analyzed using an ELISA analysis kit (Cell Biolabs, Inc., San Diego, CA, USA). […]

[2] = test system: U-87MG cells; assay: ADP-ribose quantitative analysis (ELISA) in cancer cells; type: cell-based; settings: 8 μM ADP-ribose, 24 hours, P<0.001
Protocol: (§2) After culturing, the culture medium was removed, the cells were washed with phosphate-buffered saline, and then RIPA buffer was added and the cells were left on ice for 20 minutes. After scraping the cells, the cells were put in a centrifuge tube and centrifuged for 10 minutes at 10,000 g and 4° C. The supernatant was obtained, and 1% SDS was added, and then the reaction product was boiled at 100° C. for 5 minutes and cooled on ice. The supernatant was centrifuged again at 10,000 g and 4° C. for 10 minutes to obtain the final supernatant, and ADP-ribose was quantitatively analyzed and compared using an ELISA analysis kit (Cell Biolabs, Inc., San Diego, CA, USA).
(§3) The medium of the cultured cells was removed, and the supernatant prepared by treatment with RIPA buffer and 1% sodium dodecyl sulfate (SDS) was used for ELISA analysis to detect and analyze ADP-ribose.

[3] = test system: HCT116 cells; assay: as above; type: cell-based; settings: 8 μM ADP-ribose, 24 hours, P<0.001
Protocol: as §2, §3

[4] = test system: Caki-1 cells; assay: as above; type: cell-based; settings: 16 μM ADP-ribose, 24 hours, P<0.001
Protocol: as §2, §3

[5] = test system: U-87MG cells; assay: Change over time in intracellular ADP-ribose, radiation versus ADP-ribose treatment (ELISA); type: cell-based; settings: 8 μM ADP-ribose, even after 24 hours, after radiation back to untreated level at 24 hours
Protocol: as §1

[6] = test system: HCT116 cells; assay: Cell death by combination treatment of ADP-ribose and radiation (MTT); type: cell-based; settings: HCT116, 16 μM ADP-ribose in combination with 2 Gy radiation, 24 hours, P<0.001; 2 Gy alone about 90.3%
Protocol: 3×10^3 Brain cancer (U-87MG), lung cancer (H1975), pancreatic cancer (Aspc-1), liver cancer (Hep G2), breast cancer (MDA-MB-231), colon cancer (HCT116), and kidney cancer (Caki-1) cells were cultured in a 96-well plate for 24 hours under conditions of 37° C. and 5% CO2, treated with ADP-ribose or 2 or 5 Gy radiation alone or in combination with ADP-ribose and 2 Gy radiation, and cultured for 24 hours under conditions of 37° C. and 5% CO2 again. Then, 10 μl of 3-(4,5-dimethylthiazol-2-yl)-2,5-diphenyltetrazolium bromide reagent was added to each well and reacted for 1 hour. After the reaction was completed, the reagent was removed, 200 μl of dimethyl sulfoxide was added to each well, and the absorbance was measured to compare the degree of cell death.
3×10^3 HCT116 cells were cultured in a 96-well plate for 24 hours under conditions of 37° C. and 5% CO2, treated with 16 μM of ADP-ribose and 2 or 5 Gy dose of radiation individually or in combination, and cultured for 24 hours under conditions of 37° C. and 5% CO2 again. Then, 10 μl of 3-(4,5-dimethylthiazol-2-yl)-2,5-diphenyltetrazolium bromide reagent was added to each well and reacted for 1 hour. After the reaction was completed, the reagent was removed, 200 μl of dimethyl sulfoxide was added to each well, and the absorbance was measured to confirm cell viability.

[7] = test system: MDA-MB-231 cells; assay: ADP-ribose quantitative analysis (ELISA) in cancer cells; type: cell-based; settings: 16 μM ADP-ribose, 24 hours, P<0.001
Protocol: as §2
5×10^5 MDA-MB-231 cells were divided into the untreated group and 16 μM ADP-ribose-treated group and cultured in Leibovitz's L-15 medium supplemented with 10% fetal calf serum+100 units/ml penicillin+100 μg/ml streptomycin under conditions of 37° C. and 5% CO2 for 24 hours. The medium of the cultured cells was removed, and the supernatant prepared by treatment with RIPA buffer and 1% sodium dodecyl sulfate (SDS) was used for ELISA analysis to detect and analyze ADP-ribose.

[8] = test system: Pancreatic cancer (AsPC-1) cells; assay: Xenograft model, oral ADP-ribose, tumor volume; type: in vivo, BALB/c nude mice; settings: AsPC-1 xenograft, 5 times a week, control about 3194.3
Protocol: Pancreatic cancer (AsPC-1) or kidney cancer (Caki-1) cells (1×10^7 cells) were inoculated into 5-week-old BALB/c nude mice on the back flank, and the mice were grown up to approximately 150 mm^3 of the tumor volume. Then, three concentrations of ADP-ribose were administered subcutaneously, intravenously, and orally 3 times a week. The tumor size was measured every 6 days using a digital caliper, and the changes in tumor volume were compared for each group.
Pancreatic cancer (AsPC-1) cells (1×10^7) were inoculated into 5-week-old BALB/c nude mice on the back flank, and the mice were divided into four groups: the control group (Control) and groups administered orally with 10, 40, and 80 mg/kg of ADP-ribose. When the tumors were grown to a volume of approximately 150 mm^3, each concentration of ADP-ribose was orally administered 5 times a week. The tumor size was measured using a digital caliper, and the results of changes in tumor volume were compared by the group.

[9] = test system: Brain cancer (U-87MG) cells; assay: Xenograft model, combination with anti-cancer drug, tumor volume; type: in vivo, BALB/c nude mice; settings: U-87MG xenograft
Protocol: Brain (U-87MG), lung (H1975), pancreatic (AsPC-1), or liver (Hep G2) cells (1×10^7 cells) were inoculated into 5-week-old BALB/c nude mice on the back flank, respectively. Then, when tumors were grown to a volume of approximately 150 mm^3, the mice were divided into the control group (control), an anti-cancer drug alone treatment group, and a combination treatment group. […] The tumor size was measured every 6 days using a digital caliper, and the results of changes in tumor volume were compared by the group.
Brain cancer (U-87MG) cells (1×10^7) were inoculated into 5-week-old BALB/c nude mice on the back flank, and the mice were divided into three groups: the control group (Control), single intraperitoneal administration of 25 mg/kg of Avastin (ingredient name: bevacizumab), and combination administration of Avastin+10 mg/kg of ADP-ribose. When the tumors were grown to a volume of approximately 150 mm^3, Avastin was administered intraperitoneally twice a week, and ADP-ribose at 10 mg/kg was injected subcutaneously 3 times a week. The tumor size was measured using a digital caliper, and the results of changes in tumor volume were compared by the group.

[10] = ADP-ribose 10 mg/kg s.c. in combination with Avastin 25 mg/kg, P<0.001

Question: Nc1ncnc2c1ncn2[C@@H]1O[C@H](COP(=O)(O)OP(=O)(O)OC[C@H]2O[C@@H](O)C(O)C2O)C(O)C1O (stereo partly shown) [ADP-ribose, adenosine diphosphate ribose] was tested. Which “amount of ADP-ribose in the cells over time compared to the control group” value [1] did it give?
Answer: maintained a significant (P<0.001) increase

Question: What about the “amount of ADP-ribose in cells compared to the control group” value [2] of the same compound?
Answer: remarkably increased significantly

Question: And the “amount of ADP-ribose in cells compared to the control group” value [3]?
Answer: remarkably increased significantly

Question: And the “amount of ADP-ribose in cells compared to the control group” value [4]?
Answer: remarkably increased significantly

Question: And the “amount of ADP-ribose in the cells over time compared to the control group” value [5]?
Answer: maintained a significant (P<0.001) increase

Question: And the “survival rate of cancer cells” value [6]?
Answer: about 14%

Question: And the “amount of ADP-ribose in cells compared to the control group” value [7]?
Answer: remarkably increased significantly

Question: What about the final tumor volume ([8]; 10 mg/kg oral) of the same compound?
Answer: 1798.6 mm^3

Question: And the final tumor volume ([8]; 40 mg/kg oral)?
Answer: 1175.9 mm^3

Question: And the final tumor volume ([8]; 80 mg/kg oral)?
Answer: 1056.9 mm^3

Question: What about the “reduction of tumor volume compared to the control group” value [9, 10] of the same compound?
Answer: about 87%

Question: What about the “reduction of tumor volume compared to the group treated with Avastin alone” value [9, 10] of the same compound?
Answer: about 79%

Question: What about the final tumor volume ([9]; ADP-ribose 10 mg/kg subcutaneous 3 times a week in combination with Avastin 25 mg/kg, control about 2527.1) of the same compound?
Answer: about 334.5 mm^3
